Three compounds from paper PMC5719457, “Pseudomonas aeruginosa zinc uptake in chelating environment is primarily mediated by the metallophore pseudopaline” (Scientific Reports, 2017) can be followed below.

Test [1] addresses T1, PaCntL (Pseudomonas aeruginosa, UniProt A0A0H2ZHV3).
T1 construct: gene cntL; full length, C-terminal His6 tag (pET22b+), E. coli BL21
As to the kind of experiment: TLC with […]-SAM; HILIC/ESI-MS. The class given is biochemical. To be noted: product yNA.

Test [2] addresses T2, PaCntM (Pseudomonas aeruginosa, UniProt A0A0H2ZH12).
T2 construct: gene cntM; full length, N-terminal His6 tag (TEV-cleavable, pET-TEV), E. coli BL21
As to the kind of experiment: fluorescence resonance energy transfer titration (Trp to NAD(P)H). The class given is binding.

T1 sequence (A0A0H2ZHV3 whole entry): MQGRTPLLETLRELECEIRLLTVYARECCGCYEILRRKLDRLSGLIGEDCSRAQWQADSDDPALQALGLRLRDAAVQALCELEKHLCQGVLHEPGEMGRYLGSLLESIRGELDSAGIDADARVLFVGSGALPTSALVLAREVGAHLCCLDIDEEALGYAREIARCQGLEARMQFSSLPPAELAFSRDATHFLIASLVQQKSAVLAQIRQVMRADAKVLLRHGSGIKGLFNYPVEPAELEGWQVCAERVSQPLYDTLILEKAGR
T2 sequence (A0A0H2ZH12 whole entry): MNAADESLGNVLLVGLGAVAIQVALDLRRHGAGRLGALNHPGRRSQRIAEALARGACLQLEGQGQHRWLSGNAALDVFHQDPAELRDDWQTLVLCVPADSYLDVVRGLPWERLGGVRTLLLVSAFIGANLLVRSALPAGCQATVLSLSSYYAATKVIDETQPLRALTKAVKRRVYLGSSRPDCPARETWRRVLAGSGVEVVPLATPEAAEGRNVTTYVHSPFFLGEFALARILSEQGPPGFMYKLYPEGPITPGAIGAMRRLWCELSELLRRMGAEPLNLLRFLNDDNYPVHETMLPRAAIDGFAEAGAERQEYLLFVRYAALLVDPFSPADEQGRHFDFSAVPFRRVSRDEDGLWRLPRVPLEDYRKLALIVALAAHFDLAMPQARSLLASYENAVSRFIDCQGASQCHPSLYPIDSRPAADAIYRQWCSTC

Regarding `N[C@@H](Cc1cnc[nH]1)C(=O)O` [L-histidine], the “TLC with [14C]-SAM; HILIC/ESI-MS” value in test [1] (co-substrate SAM) is “Only the incubation with L-histidine led to a novel band”.
The term Kd denotes the equilibrium constant for the complex coming apart. Low values mean higher affinity, high ones lower affinity. Take `NC(=O)C1=CN([C@@H]2O[C@H](COP(=O)(O)OP(=O)(O)OC[C@H]3O[C@@H](n4cnc5c(N)ncnc54)[C@H](O)[C@@H]3O)[C@@H](O)[C@H]2O)C=CC1` [NADH]: the Kd in test [2] worked out at 30 µM.
On to `C[S+](CC[C@H](N)C(=O)O)C[C@H]1O[C@@H](n2cnc3c(N)ncnc32)[C@H](O)[C@@H]1O` (stereo partly drawn) [SAM], for which the “TLC with [14C]-SAM; HILIC/ESI-MS” value in test [1] (co-substrate L-histidine, labelled compound (carboxyl-14C) in TLC) is “incubation of PaCntL with SAM and L-histidine led to the formation of the yNA”.
